Drawing on PMC11995724, “Antibiotic target discovery by integrated phenotypic and activity-based profiling of electrophilic fragments” (Cell chemical biology, 2025), this text covers viability for 50 molecules.

Structures can show the parent of a compound that is named as a salt.

A short description of this data set: in vitro. The note with it: human, hek293t cells.
On to `Cc1ccc(NC(=O)C(C)Cl)cc1S(=O)(=O)N1CCOCC1` (centres unmarked) [5-D22, 2-chloro-N-[4-methyl-3-(morpholine-4-sulfonyl)phenyl]propanamide], for which the viability at 48 h, 25 µM is 77.8%. Then `CN(C1CCCCC1)S(=O)(=O)c1ccc(NC(=O)CCl)cc1` [5-E03, 2-chloro-N-{4-[cyclohexyl(methyl)sulfamoyl]phenyl}acetamide], with -0.149%; and `Cc1noc(CC(NC(=O)CCl)c2ccccc2)n1` (centres unmarked) [5-E04, 2-chloro-N-[2-(3-methyl-1,2,4-oxadiazol-5-yl)-1-phenylethyl]acetamide], with 29.3%; and `COc1cccc(CN(C(=O)CCl)C23CC4CC(CC(C4)C2)C3)c1` [5-E05, N-(adamantan-1-yl)-2-chloro-N-[(3-methoxyphenyl)methyl]acetamide], with 0.151%. Then `CC(C)N(Cc1ccc(N(C)C)cc1)C(=O)CCl` [5-E06, 2-chloro-N-{[4-(dimethylamino)phenyl]methyl}-N-(propan-2-yl)acetamide], with 1.94%; and `Cc1ccc(S(=O)(=O)NC2CN(C(=O)CCl)C2)cc1` [5-E07, N-[1-(2-chloroacetyl)azetidin-3-yl]-4-methylbenzene-1-sulfonamide], with 0.324%. Then `O=C(CCl)N1CCCCC1Cn1ccnn1` (centres unmarked) [5-E08, 2-chloro-1-{2-[(1H-1,2,3-triazol-1-yl)methyl]piperidin-1-yl}ethan-1-one], with 28%; and `O=C(CCl)NC1CC(=O)N(c2cccc(C(F)(F)F)c2)C1` (centres unmarked) [5-E09, 2-chloro-N-{5-oxo-1-[3-(trifluoromethyl)phenyl]pyrrolidin-3-yl}acetamide], with 0.777%; and `O=C(CCl)N1CCOCC1c1noc(-c2ccccc2)n1` (centres unmarked) [5-E10, 2-chloro-1-[3-(5-phenyl-1,2,4-oxadiazol-3-yl)morpholin-4-yl]ethan-1-one], with 1.07%. As for `CC(NC(=O)CCl)c1cn(C)c2cc(Cl)ccc12` (centres unmarked) [5-E11, 2-chloro-N-[1-(6-chloro-1-methyl-1H-indol-3-yl)ethyl]acetamide], the viability at 48 h, 25 µM turned out to be 0.196%.

Turning to `COc1cc(CN(C(=O)CCl)C2CCCOC2)ccc1C` (centres unmarked) [5-E12, 2-chloro-N-[(3-methoxy-4-methylphenyl)methyl]-N-(oxan-3-yl)acetamide], the viability at 48 h, 25 µM was found to be 0.549%. Then `CN(C)S(=O)(=O)c1cc(NC(=O)CCl)ccc1Cl` [5-E13, 2-chloro-N-[4-chloro-3-(dimethylsulfamoyl)phenyl]acetamide], with 0.0364%; and `Cc1cc(CN(C(=O)CCl)c2ccc(F)cc2)nn1C` [5-E14, 2-chloro-N-[(1,5-dimethyl-1H-pyrazol-3-yl)methyl]-N-(4-fluorophenyl)acetamide], with 0.639%. For `O=C(CCl)NCC1(c2ccccc2)CC1` [5-E15, 2-chloro-N-[(1-phenylcyclopropyl)methyl]acetamide] the value was 3.61%; for `Cc1cc(C(C)N(Cc2c(C)noc2C)C(=O)CCl)c(C)o1` (centres unmarked) [5-E16, 2-chloro-N-[(3,5-dimethyl-1,2-oxazol-4-yl)methyl]-N-[1-(2,5-dimethylfuran-3-yl)ethyl]acetamide], 1.18%; for `CC(C)(C)C1CCc2c(sc(NC(=O)CCl)c2C#N)C1` (centres unmarked) [5-E17, N-(6-tert-butyl-3-cyano-4,5,6,7-tetrahydro-1-benzothiophen-2-yl)-2-chloroacetamide], 0.117%. For `O=C(CCl)N1CCN(C2CCCN(C3CCOCC3)C2=O)CC1` (centres unmarked) [5-E18, 3-[4-(2-chloroacetyl)piperazin-1-yl]-1-(oxan-4-yl)piperidin-2-one] the value was 9.07%; for `O=C(CCl)NC1CCN(Cc2ccccc2)CC1` [5-E19, N-(1-benzylpiperidin-4-yl)-2-chloroacetamide hydrochloride], 1.13%; for `O=C(CCl)N1CCC(C2CCCN(C(=O)C(F)(F)F)C2)CC1` (centres unmarked) [5-E20, 1-[1'-(2-chloroacetyl)-[3,4'-bipiperidin]-1-yl]-2,2,2-trifluoroethan-1-one], 1.17%.

`CC(Cl)C(=O)Nc1sccc1C#N` (centres unmarked) [5-E21, 2-chloro-N-(3-cyanothiophen-2-yl)propanamide]: the viability at 48 h, 25 µM is 59%. `O=C(CCl)N1C[C@@H]2C[C@H]1CN2c1ccccc1` [5-E22, 2-chloro-1-[(1S,4S)-5-phenyl-2,5-diazabicyclo[2.2.1]heptan-2-yl]ethan-1-one]: the viability at 48 h, 25 µM came to 0.453%. For `CNC(=O)C(F)(F)C1(O)CCN(C(=O)CCl)CC1` [5-F03, 2-[1-(2-chloroacetyl)-4-hydroxypiperidin-4-yl]-2,2-difluoro-N-methylacetamide] the value was 1.94%; for `CC1CN(C(=O)C(C)Cl)CC(C)O1` (centres unmarked) [5-F04, 2-chloro-1-(2,6-dimethylmorpholin-4-yl)propan-1-one], 96.1%.

`CC(C)n1cc(C2=CCCN(C(=O)CCl)CC2)nn1` [5-F05, 2-chloro-1-{4-[1-(propan-2-yl)-1H-1,2,3-triazol-4-yl]-2,3,6,7-tetrahydro-1H-azepin-1-yl}ethan-1-one]: the viability at 48 h, 25 µM was 1.75%. Then `CN(Cc1ccc(N(C)C)cc1)C(=O)CCl` [5-F06, 2-chloro-N-{[4-(dimethylamino)phenyl]methyl}-N-methylacetamide hydrochloride], with 0.499%; and `CCN(Cc1cccs1)C(=O)CCl` [5-F07, 2-chloro-N-ethyl-N-[(thiophen-2-yl)methyl]acetamide], with 1.01%; and `CC(Cl)C(=O)Nc1ccc(-c2c[nH]cn2)cc1` (centres unmarked) [5-F08, 2-chloro-N-[4-(1H-imidazol-4-yl)phenyl]propanamide], with 98.2%. Then `CC(C1CC1)N(Cc1ccccc1)C(=O)CCl` (centres unmarked) [5-F09, N-benzyl-2-chloro-N-(1-cyclopropylethyl)acetamide], with 0.956%.

On to `CC(Cl)C(=O)Nc1ccccc1` (centres unmarked) [5-F10, 2-chloro-N-phenylpropanamide], for which the viability at 48 h, 25 µM turned out to be 91.9%. For `CC(Cl)C(=O)N1CCCCCC1` (centres unmarked) [5-F11, 1-(azepan-1-yl)-2-chloropropan-1-one] the value was 105%; for `CC(C1CC1)N(C(=O)CCl)C1CC1` (centres unmarked) [5-F12, 2-chloro-N-cyclopropyl-N-(1-cyclopropylethyl)acetamide], 1.06%. For `CC(NC(=O)CCl)c1nnc(-c2cccc(F)c2)s1` (centres unmarked) [5-F13, 2-chloro-N-{1-[5-(3-fluorophenyl)-1,3,4-thiadiazol-2-yl]ethyl}acetamide] the value was 0.963%. For `CC(CC#N)Sc1ccccc1NC(=O)CCl` (centres unmarked) [5-F14, 2-chloro-N-{2-[(1-cyanopropan-2-yl)sulfanyl]phenyl}acetamide] the value was 1.02%; for `CC(Cl)C(=O)N1Cc2ccccc2N(C)C[C@@H]1C` (stereo partly drawn) [5-F15, 2-chloro-1-[(3S)-1,3-dimethyl-2,3,4,5-tetrahydro-1H-1,4-benzodiazepin-4-yl]propan-1-one], 108%. `Cc1ccc(-c2csc(NC(=O)CCl)n2)cc1C` [5-F16, 2-chloro-N-[4-(3,4-dimethylphenyl)-1,3-thiazol-2-yl]acetamide]: the viability at 48 h, 25 µM was found to be 0.595%. With `CC(Cl)C(=O)N1CCN(C(=O)c2cccc(OC(F)F)c2)CC1` (centres unmarked) [5-F17, 2-chloro-1-{4-[3-(difluoromethoxy)benzoyl]piperazin-1-yl}propan-1-one], the viability at 48 h, 25 µM was found to be 106%. For the molecule `CN(CC(=O)Nc1cccc(Cl)c1)C(=O)CCl` [5-F18, 2-chloro-N-{[(3-chlorophenyl)carbamoyl]methyl}-N-methylacetamide], the viability at 48 h, 25 µM was 0.687%.

As for `CC(Cl)C(=O)Nc1cccc(-c2ncc3n2CCCC3)c1` (centres unmarked) [5-F19, 2-chloro-N-(3-{5H,6H,7H,8H-imidazo[1,5-a]pyridin-3-yl}phenyl)propanamide], the viability at 48 h, 25 µM came out at 95.8%. Then `O=C(CCl)NCCc1c(F)cccc1F` [5-F20, 2-chloro-N-[2-(2,6-difluorophenyl)ethyl]acetamide], with 15.5%; and `CC(Cl)C(=O)N1CC(n2cc(C(N)=O)nn2)C1` (centres unmarked) [5-F21, 1-[1-(2-chloropropanoyl)azetidin-3-yl]-1H-1,2,3-triazole-4-carboxamide], with 94.6%. Then `O=C(CCl)N(Cc1ccccc1)Cc1ccco1` [5-F22, N-benzyl-2-chloro-N-[(furan-2-yl)methyl]acetamide], with 0.693%.

Turning to `COc1ccc(NC(C)=O)cc1NC(=O)CCl` [5-G03, 2-chloro-N-(5-acetamido-2-methoxyphenyl)acetamide], the viability at 48 h, 25 µM was determined as 1.44%.

Regarding `CCC(=O)NC1CCN(C(=O)CCl)C1` (centres unmarked) [5-G04, N-[1-(2-chloroacetyl)pyrrolidin-3-yl]propanamide], the viability at 48 h, 25 µM came out at 10.3%.

As to `CC(Cl)C(=O)Nc1ccccc1C(N)=O` (centres unmarked) [5-G05, 2-(2-chloropropanamido)benzamide], the viability at 48 h, 25 µM amounted to 101%.

With `Cc1noc(C)c1CN(C)C(=O)CCl` [5-G06, 2-chloro-N-[(3,5-dimethyl-1,2-oxazol-4-yl)methyl]-N-methylacetamide], the viability at 48 h, 25 µM stood at 1.87%. As to `COc1ccc2[nH]c3c(c2c1)CCCC3NC(=O)CCl` (centres unmarked) [5-G07, 2-chloro-N-(6-methoxy-2,3,4,9-tetrahydro-1H-carbazol-1-yl)acetamide], the viability at 48 h, 25 µM is 0.129%. For `O=C(CCl)N1CCOc2c1cccc2C(F)(F)F` [5-G08, 2-chloro-1-[8-(trifluoromethyl)-3,4-dihydro-2H-1,4-benzoxazin-4-yl]ethan-1-one] the value was 0.974%; for `O=C(CCl)NC1CCC2(CCC1(F)F)OCCO2` (centres unmarked) [5-G09, 2-chloro-N-{9,9-difluoro-1,4-dioxaspiro[4.6]undecan-8-yl}acetamide], 5.9%. Then `O=C(CCl)N1CC(S(=O)(=O)Nc2ccccc2)C1` [5-G10, 1-(2-chloroacetyl)-N-phenylazetidine-3-sulfonamide], with 1.28%. Then `CC(NC(=O)CCl)C(=O)Nc1ccc(Cl)cc1` (centres unmarked) [5-G11, 2-(2-chloroacetamido)-N-(4-chlorophenyl)propanamide], with 1.06%.
